According to patent US11059771B2, “Warming sensation compounds” (TAKASAGO INTERNATIONAL CORPORATION, priority 2016, dated 2021):

What was measured:
expert panelists = assay: Warming evaluation in milk chocolate by expert panelists (Example 17); type: in vivo, human; settings: 5% cut in MCT at 0.3% in milk chocolate; for Average Warming Intensity (1-9): 1=none, 9=very strong, control without warming compound 1.7; for Onset: panelists chose slow, medium or fast
mouth = assay: Perceived warming sensations in the mouth, "swish and spit" protocol (Example 15); type: in vivo, human; settings: 1% by weight in ethanol, diluted at 10 ppm in water, one comment per participant (5 expert evaluators)
Procedure: A warming composition was prepared by adding 1% by weight of the warming agent of Example 1 to ethanol. The resulting warming composition was diluted at 10 ppm in water. The diluted warming composition was evaluated for its perceived warming sensations in the mouth by 5 expert evaluators following a “swish and spit” protocol, in which the sample is placed into a small tasting cup, taken into the mouth, and swished around, then the sample is spit back into the original tasting cup and disposed of. Additional compounds were evaluated and compared for perceived warming sensations in the mouth by expert evaluators following the “swish and spit” protocol.

panelists = assay: Warming sensation in lotion, panel evaluation (Example 20); type: in vivo, human; settings: for Overall warming intensity (1 = no effect, 5 = extremely warming): 0.5% loading in in-house lotion base, 5 panelists, control 1.25
Text: All materials were made with 0.5% loading of active compound in an in-house lotion base except the control, which contains no active material. There were a total of 5 panelists to evaluate the lotion samples.

melting point	Compound	Average Warming Intensity (1-9) (expert panelists; 10 expert panelists)	Character/Comments (expert panelists; 10 expert panelists, listed as compound C)	Onset (expert panelists)	Comments (perceived warming sensations in the mouth) (mouth)	Heat sensation when working out (sweating) after application (panelists; 0.5% in lotion base, noticed by an evaluator)	Overall warming intensity (1 = no effect, 5 = extremely warming) (panelists)
56 °C	COc1cc(CC(=O)OCCOc2ccccc2)ccc1O [Example 1, 2-Phenoxyethyl 2-(4-hydroxy-3-methoxyphenyl)acetate]	6.8	pleasant linger, without an irritating burn	Fast (“fast onset” relates to the onset of warming sensation in less than about 10 seconds (i.e., quick))	Immediate burn, intense but fades really quickly	the heat sensation came back at the same intensity as first described at initial application	2.90
	COc1cc(CC(=O)OC/C=C(\C)CCC=C(C)C)ccc1O [Example 13, (E)-3,7-Dimethylocta-2,6-dien-1-yl 2-(4-hydroxy-3-methoxyphenyl)acetate]	2.7		Slow (“slow onset” relates to the onset of warming sensation occurring after about 15 seconds (i.e., delayed))			2.70
	COc1ccc(CC(C)COC(=O)Cc2ccc(O)c(OC)c2)cc1 (stereo not shown) [Example 5, 3-(4-methoxyphenyl)-2-methylpropyl 2-(4-hydroxy-3-methoxyphenyl)acetate]	2.25		Slow (“slow onset” relates to the onset of warming sensation occurring after about 15 seconds (i.e., delayed))			1.80
